PubChem BioAssay (NCI)
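Dose response: 5 concentrations. Exposure: 48 h. Format: 96-well plates. Endpoint: linear interpolation; highest concentration if not reached. Here, GI50 denotes the concentration required for 50% inhibition of growth. TGI: concentration producing complete growth inhibition.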

System: MDA-MB-468 breast
Experiment: NCI tumour cell line growth inhibition, 48 h

Compound | GI50 | TGI
Cc1ccc(Cl)c(Nc2ccccc2C(=O)O)c1Cl | 25900 nM | 67.2 µM
Cc1ccc(NC(=O)c2sc3nc4c(cc3c2N)C(=O)CCC4)cc1C | 314 nM | > 100 µM
CC(=O)Oc1ccc(/C(=C(\C)c2ccc(Cl)cc2)c2ccc(OCCN3CCCCC3)cc2)cc1 | 1450 nM | 3.21 µM
N#C[Se]CCCNS(=O)(=O)C1CC2C=CC1C2 (stereo not given) | 1290 nM | 4.16 µM
O=C(Nc1n[nH]c2nnc(-c3cccnc3)cc12)C1CC1 | 805 nM | 5.02 µM
Clc1ccc(-c2cc(-c3ccccc3)nc(NCCNc3ccnc4cc(Cl)ccc34)n2)cc1 | 1480 nM | 3.15 µM
O=C1OCC2=C1C(c1ccc(Cl)c(Cl)c1)c1cc3c(cc1N2CCO)CCC3 (stereo not given) | 109 nM | 0.35 µM
COc1cc2c(cc1Nc1nc(Nc3cccc(F)c3C(N)=O)c3cc[nH]c3n1)N(C(=O)CN1CCN(C(C)C)CC1)CC2 | 2220 nM | 5.73 µM
COc1ccc(/C=C2\C=C(c3ccccc3)N(CCc3ccccc3)C2=O)cc1OC | 7570 nM | 42.4 µM
Cn1c(=O)c(Oc2ccc(F)cc2F)cc2cnc(NC3CCS(=O)(=O)CC3)nc21 | > 25000 nM | > 25 µM
CCCCCCCCCCCCCCCCC(=O)O.CCCCCCCCCCCCCCCCCC(=O)O.CCCCCCCCCCCCCCCCCC(=O)O.CCCCCCCCCCCCCCCCCC(=O)O.CCCCCCCCCCCCCCCCCC(=O)O.CO[CH-]OC12COC1CC(O)C1(C)C(O)C(OC(C)O)C3=C(C)C(OC(=O)C(O)C([NH-])c4ccccc4)CC(O)(C(OC(=O)c4ccccc4)C21)C3(C)C.[Cu+].[Zn].[Zn].[Zn].[Zn].[Zn] (stereo not given) | 3.38 nM | 0.0166 µM
COc1cc(/C=C/C(=O)N2CCN(C(=O)c3cc(OC)c(OC)c(OC)c3)CC2)ccc1OCCCOc1cc2c(cc1OC)C(=O)N1CCC[C@H]1C=N2 | 102 nM | 0.336 µM
CC(=O)c1cc(C(=O)c2ccc3c(c2)Sc2ccccc2N3)c2cc(C)ccn12 | 66.3 nM | 7.21 µM
CC(=O)OC1CC2C3CCC4C[C@@H](NC(=O)C=C(C)C)CC[C@]4(C)C3CC[C@]2(C)[C@H]1C(C)N(C)C (stereo not given in full) | 800 nM | 2.37 µM
COc1ccc(Nc2cc(C)nc(NCCCNc3ccnc4cc(Cl)ccc34)n2)cc1 | 1390 nM | 2.79 µM
Oc1cc2ccccc2c(-c2c(O)c(O)cc3ccccc23)c1O | 1090 nM | 17.2 µM
COC1=CC(c2ccc[nH]2)=N/C1=C\c1[nH]c(C)c(C(=O)CCCCC(=O)Oc2ccc3c(c2)CCC2C3CC[C@]3(C)[C@@H](O)CC[C@@H]23)c1C (stereo not given in full) | 4920 nM | > 100 µM
CN(C)c1ccc(/C=C/C2=[N+](C)c3ccccc3C2(C)C)cc1 | 555 nM | 6.19 µM
NC(N)=N/N=C/c1ccc(-c2ccc(-c3cc(Cl)cc(Cl)c3)s2)cc1 | 1830 nM | 3.81 µM
CCOC(=O)C(=O)/C(=C/N1C(=O)CC(=O)NC1=S)C(=O)OCC | > 100000 nM | > 100 µM
CN1CCN(Cc2ccc(NC(=O)c3cccc(C#Cc4cnc(N)c5ncccc45)c3F)cc2C(F)(F)F)CC1 | 6200 nM | 16 µM
O=C(/C=C/c1csc(Br)n1)NO | 2900 nM | 21.5 µM
O=C1c2cccc(NCCN=Cc3ccccc3O)c2C(=O)c2c(NCCN=Cc3ccccc3O)cccc21 | – | 0.191 µM
COc1ccc(/C=C/C(=O)c2ccc(OC)c(OC)c2)cc1O | 3590 nM | 19.6 µM
CCOc1cccc(-c2nc(N)nc(Nc3ccccc3SSc3ccccc3Nc3nc(N)nc(-c4cccc(OCC)c4)n3)n2)c1 | 24200 nM | > 100 µM
COc1cc(-c2cc(-c3cc(OC)c(OC)c(OC)c3)nc3nc(N)[nH]c(=O)c23)ccc1Oc1ccnc2cc(Cl)ccc12 | 3240 nM | > 100 µM
CCN(CC)Cc1c(/C=C\c2cc(OC)c(OC)c(OC)c2)ccc(OC)c1O | 7970 nM | 34 µM
COc1cc(C(=O)N/N=C/c2ccc(N(C)C)cc2)cc(OC)c1OC | 225 nM | 1.19 µM
